Measured values from US6930208B2, “3-Keto- or 3- oxime-ether-substituted benzoylcyclohexanediones” (Bayer CropScience GmbH, priority 2002, dated 2005).

What was measured:
Assay in all cases: Plant tolerance (greenhouse, post-emergence)
Format in all cases: in vivo
Details in all cases: visual scoring four to five weeks after application
wheat = tested on: wheat
Protocol: (§1) Seeds of mono- and dicotyledonous harmful plants are placed in sandy loam in cardboard pots, covered with soil and grown in the greenhouse under good growth conditions. 2 to 3 weeks after sowing, the test plants are treated in the three-leaf stage. The compounds according to the invention, which are formulated as wettable powders or as emulsion concentrates, are sprayed at various dosages onto the surface of the green plant parts at an application rate of 600 to 800 l of water per ha (converted). After the test plants have been left to stand in the greenhouse for 3 to 4 weeks under optimal growth conditions, the effect of the compounds is scored visually. The chosen compounds according to the invention have an outstanding activity against a broad spectrum of economically important monocotyledonous and dicotyledonous harmful plants.
(§2) In further greenhouse experiments, seeds of crop plants and of monocotyledonous and dicotyledonous harmful plants are placed in sandy loam, covered with soil and placed in the greenhouse until the plants have developed two to three true leaves. Then, they are treated with the compounds of the formula (I) according to the invention as described above under item 1. […] Thus, for example, the compounds of examples Nos. 4.16 and 4.98 cause, at a dosage of 320 g/ha, no damage in wheat, rice and maize. The compounds of examples Nos. 1.4, 1.8, 4.16, 4.19 and 4.98 caused, at 80 g/ha, no damage in wheat, rice and maize.

maize = tested on: maize
Protocol: as §1, §2

rice = tested on: rice
Protocol: as §1, §2

CCC(=O)COc1c(S(C)(=O)=O)ccc(C(=O)C2=C(O)CCCC2=O)c1Cl [Example 1.4]
no damage: damage in wheat (wheat; 80 g/ha) | damage in maize (maize; 80 g/ha) | damage in rice (rice; 80 g/ha)

CC1(C)CC(=O)C(C(=O)c2ccc(S(C)(=O)=O)c(OCC(=O)C(C)(C)C)c2Cl)=C(O)C1 [Example 1.8]
no damage: damage in wheat (wheat; 80 g/ha) | damage in maize (maize; 80 g/ha) | damage in rice (rice; 80 g/ha)

CCON=C(C)COc1c(S(C)(=O)=O)ccc(C(=O)C2=C(O)CCCC2=O)c1Cl [Example 4.16]
no damage: damage in wheat (wheat; 80 g/ha) | damage in wheat (wheat; 320 g/ha) | damage in maize (maize; 80 g/ha) | damage in maize (maize; 320 g/ha) | damage in rice (rice; 80 g/ha) | damage in rice (rice; 320 g/ha)

C=CCON=C(C)COc1c(S(C)(=O)=O)ccc(C(=O)C2=C(O)CCCC2=O)c1Cl [Example 4.19]
no damage: damage in wheat (wheat; 80 g/ha) | damage in maize (maize; 80 g/ha) | damage in rice (rice; 80 g/ha)

CCON=C(CC)COc1c(S(C)(=O)=O)ccc(C(=O)C2=C(O)CCCC2=O)c1Cl [Example 4.98]
no damage: damage in wheat (wheat; 80 g/ha) | damage in wheat (wheat; 320 g/ha) | damage in maize (maize; 80 g/ha) | damage in maize (maize; 320 g/ha) | damage in rice (rice; 80 g/ha) | damage in rice (rice; 320 g/ha)
